Measured values reported in ChEMBL document CHEMBL4732115, “Discovery of novel cell-penetrating and tumor-targeting peptide-drug conjugate (PDC) for programmable delivery of paclitaxel and cancer treatment” (Eur J Med Chem, 2021).
The source made the active and inactive calls. No cut-off for these calls is given here. Peptide text beside a SMILES is read from it. * marks the point of attachment. X1 = CC(=O)O[C@H]1C(=O)[C@@]2(C)[C@H]([C@H](OC(=O)c3ccccc3)[C@]3(O)C[C@H](OC(=O)[C@H](OC(=O)OCCS*)[C@@H](NC(=O)c4ccccc4)c4ccccc4)C(C)=C1C3(C)C)[C@]1(OC(C)=O)CO[C@@H]1C[C@@H]2O; X2 = NCCCC[C@H](N*)C(=O)NC(=O)C1CCC(=O)N1

Assays:
HeLa = assay: Cytotoxicity against human HeLa cells assessed as reduction in cell viability measured after 48 hrs by MTT assay; format: functional, cell-based
A2780 = assay: Cytotoxicity against human A2780 cells assessed as reduction in cell viability measured after 48 hrs by MTT assay; format: functional, cell-based; conditions: A2780, 48 h
NCM460 = assay: Cytotoxicity against human NCM460 cells assessed as reduction in cell viability measured after 48 hrs by MTT assay; format: cell-based; conditions: NCM460, 48 h
Erythrocyte = assay: Hemolytic activity against human erythrocytes up to 80 uM measured after 1 hr; format: ADME, cell-based
[1] = target: 72 kDa type IV collagenase (Homo sapiens, UniProt P08253); assay: Drug metabolism in PBS buffer assessed as MMP2 (unknown origin)-mediated CPP-PTX formation at 0.5 uM measured after 2 hrs by LC-MS analysis; format: ADME
[2] = Drug uptake in human MCF7 cells at 20 nM measured after 4 hrs by LC-MS analysis; format: ADME, cell-based; conditions: mcf7, 4 h, 0.02 µM
[3] = Drug uptake in human MCF7 cells at 20 nM measured after 4 hrs in presence of LHRH by LC-MS analysis; format: ADME, cell-based; conditions: mcf7, 4 h, 0.02 µM
[4] = Drug uptake in human MCF7 cells at 20 nM measured after 4 hrs in presence of MMP inhibitor ilomastat and LHRH by LC-MS analysis; format: ADME, cell-based; conditions: mcf7, 4 h, 0.02 µM
MCF7 [5] = assay: Antimigratory activity against human MCF7 cells at 1.8 nM measured after 48 hrs by scratch wound-healing assay; format: functional, cell-based
MCF7 [6] = assay: Antitumor activity against human MCF7 cells xenografted in ip dosed BALB/c nude mouse assessed as tumor shrinkage administered every two days for two weeks; format: functional, organism-based; conditions: dose 8-12 µmol/kg, time 2.0 weeks
[7] = Toxicity in human MCF7 cells xenografted in BALB/c nude mouse assessed as change in body weight at 8 to 12 umol/kg, ip administered every two days for two weeks; format: organism-based; conditions: in vivo, 336 h, dose 8-12 µmol/kg, time 2 weeks
MCF7 [8] = assay: Antitumor activity against human MCF7 cells xenografted in BALB/c nude mouse assessed as reduction in tumor weight at 8 umol/kg, ip administered every two days for two weeks relative to control; format: functional; design: scale not given: the % may be the effect or the level left; conditions: dose 8 µmol/kg; time 2 weeks
[9] = Toxicity in human MCF7 cells xenografted in BALB/c nude mouse assessed as morphological changes in heart at 8 to 12 umol/kg, ip administered every two days for two weeks measured post last dose by H and E staining based histological analysis; format: organism-based; conditions: in vivo, 336 h, dose 8-12 µmol/kg, time 2 weeks
[10] = Toxicity in human MCF7 cells xenografted in BALB/c nude mouse assessed as morphological changes in spleen at 8 to 12 umol/kg, ip administered every two days for two weeks measured post last dose by H and E staining based histological analysis; format: organism-based; conditions: in vivo, 336 h, dose 8-12 µmol/kg, time 2 weeks
[11] = Toxicity in human MCF7 cells xenografted in BALB/c nude mouse assessed as morphological changes in kidney at 8 to 12 umol/kg, ip administered every two days for two weeks measured post last dose by H and E staining based histological analysis; format: organism-based; conditions: in vivo, 336 h, dose 8-12 µmol/kg, time 2 weeks
MCF7 [12] = assay: Induction of apoptosis in human MCF7 cells xenografted in ip dosed BALB/c nude mouse assessed as down regulation of Bcl2 expression administered every two days for two weeks measured post last dose by Western blot analysis; format: functional, organism-based; conditions: dose 8-12 µmol/kg, time 2.0 weeks
MCF7 [13] = assay: Induction of apoptosis in human MCF7 cells xenografted in ip dosed BALB/c nude mouse assessed as up regulation of cleaved caspase-9 expression administered every two days for two weeks measured post last dose by Western blot analysis; format: functional, organism-based; conditions: dose 8-12 µmol/kg, time 2.0 weeks
[14] = Drug conversion in tumor of BALB/c nude mouse xenografted with human MCF7 cells assessed as T2-PTX formation at 8 to 12 umol/kg, ip measured after 2 hrs by LC-MS analysis; format: ADME, organism-based, Neoplasm; conditions: in vivo, dose 8-12 µmol/kg
[15] = Drug conversion in heart of BALB/c nude mouse xenografted with human MCF7 cells assessed as PTX formation at 8 to 12 umol/kg, ip measured after 2 hrs by LC-MS analysis; format: ADME, organism-based; conditions: in vivo, dose 8-12 µmol/kg
[16] = Drug conversion in liver of BALB/c nude mouse xenografted with human MCF7 cells assessed as PTX formation at 8 to 12 umol/kg, ip measured after 2 hrs by LC-MS analysis; format: ADME, organism-based; conditions: in vivo, dose 8-12 µmol/kg
[17] = Drug conversion in kidney of BALB/c nude mouse xenografted with human MCF7 cells assessed as PTX formation at 8 to 12 umol/kg, ip measured after 2 hrs by LC-MS analysis; format: ADME, organism-based; conditions: in vivo, dose 8-12 µmol/kg
[18] = Drug conversion in serum of BALB/c nude mouse xenografted with human MCF7 cells assessed as PTX formation at 8 to 12 umol/kg, ip measured after 2 hrs by LC-MS analysis; format: ADME, organism-based; conditions: in vivo, dose 8-12 µmol/kg
[19] = Drug conversion in heart of BALB/c nude mouse xenografted with human MCF7 cells assessed as T2-PTX formation at 8 to 12 umol/kg, ip measured after 2 hrs by LC-MS analysis; format: ADME, organism-based; conditions: in vivo, dose 8-12 µmol/kg
[20] = Drug conversion in kidney of BALB/c nude mouse xenografted with human MCF7 cells assessed as T2-PTX formation at 8 to 12 umol/kg, ip measured after 2 hrs by LC-MS analysis; format: ADME, organism-based; conditions: in vivo, dose 8-12 µmol/kg
[21] = Drug conversion in serum of BALB/c nude mouse xenografted with human MCF7 cells assessed as T2-PTX formation at 8 to 12 umol/kg, ip measured after 2 hrs by LC-MS analysis; format: ADME, organism-based; conditions: in vivo, dose 8-12 µmol/kg
[22] = Neurotoxicity in BALB/c mouse assessed as increase in pain sensitivity at 12 umol/kg, ip administered every two days for 14 days by hot-plate test; format: toxicity, organism-based; conditions: in vivo, 336 h, dose 12 µmol/kg, time 14 day
[23] = Neurotoxicity in BALB/c mouse assessed as increase in pain sensitivity at 12 umol/kg, ip administered every two days for 14 days by hot water tail immersion test; format: toxicity, organism-based; conditions: in vivo, 336 h, dose 12 µmol/kg, time 14 day
[24] = Neurotoxicity in BALB/c mouse assessed as change in DOPAC level at 12 umol/kg, ip administered every two days for 14 days measured post last dose by LC-MS analysis; format: toxicity, organism-based; conditions: in vivo, 336 h, dose 12 µmol/kg, time 14 day
[25] = Neurotoxicity in BALB/c mouse assessed as change in glutamate level at 12 umol/kg, ip administered every two days for 14 days measured post last dose by LC-MS analysis; format: toxicity, organism-based; conditions: in vivo, 336 h, dose 12 µmol/kg, time 14 day
[26] = Neurotoxicity in BALB/c mouse assessed as change in glutamine level at 12 umol/kg, ip administered every two days for 14 days measured post last dose by LC-MS analysis; format: toxicity, organism-based; conditions: in vivo, 336 h, dose 12 µmol/kg, time 14 day
[27] = Neurotoxicity in BALB/c mouse assessed as change in noradrenaline level at 12 umol/kg, ip administered every two days for 14 days measured post last dose by LC-MS analysis; format: toxicity, organism-based; conditions: in vivo, 336 h, dose 12 µmol/kg, time 14 day
[28] = Neurotoxicity in BALB/c mouse assessed as change in serotonin level at 12 umol/kg, ip administered every two days for 14 days measured post last dose by LC-MS analysis; format: toxicity, organism-based; conditions: in vivo, 336 h, dose 12 µmol/kg, time 14 day
[29] = Neurotoxicity in BALB/c mouse assessed as change in vanillylmandelic acid level at 12 umol/kg, ip administered every two days for 14 days measured post last dose by LC-MS analysis; format: toxicity, organism-based; conditions: in vivo, 336 h, dose 12 µmol/kg, time 14 day
[30] = Myelosuppression in BALB/c mouse assessed as change in lymphocyte count at 12 umol/kg, ip administered every two days for 14 days measured post last dose; format: ADME, organism-based; conditions: in vivo, 336 h, dose 12 µmol/kg, time 14 day

Chain of 72 kDa type IV collagenase (P08253 whole entry): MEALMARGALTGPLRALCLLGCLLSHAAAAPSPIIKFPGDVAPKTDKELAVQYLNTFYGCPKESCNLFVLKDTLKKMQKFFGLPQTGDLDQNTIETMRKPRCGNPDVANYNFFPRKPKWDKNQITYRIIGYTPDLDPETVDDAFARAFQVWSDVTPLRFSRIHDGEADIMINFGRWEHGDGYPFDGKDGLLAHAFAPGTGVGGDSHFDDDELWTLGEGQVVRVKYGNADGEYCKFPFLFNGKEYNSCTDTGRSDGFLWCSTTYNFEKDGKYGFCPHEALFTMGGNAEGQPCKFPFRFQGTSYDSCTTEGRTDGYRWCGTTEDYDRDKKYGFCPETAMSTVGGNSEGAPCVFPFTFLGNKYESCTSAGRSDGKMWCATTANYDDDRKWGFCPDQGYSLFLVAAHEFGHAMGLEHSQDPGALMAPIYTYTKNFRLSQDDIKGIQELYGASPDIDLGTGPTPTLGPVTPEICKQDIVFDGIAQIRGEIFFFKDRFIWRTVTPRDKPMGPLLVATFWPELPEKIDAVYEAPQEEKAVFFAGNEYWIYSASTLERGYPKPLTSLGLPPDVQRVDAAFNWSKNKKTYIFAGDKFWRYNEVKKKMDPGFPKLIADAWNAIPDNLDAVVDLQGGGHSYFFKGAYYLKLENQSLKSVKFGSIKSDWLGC

CC(=O)O[C@H]1C(=O)[C@@]2(C)[C@H]([C@H](OC(=O)c3ccccc3)[C@]3(O)C[C@H](OC(=O)[C@H](OC(=O)OCCSSC[C@H](N)C(=O)N[C@@H](CC(C)C)C(=O)N[C@@H](CC(C)C)C(=O)N[C@@H](CCCCN)C(=O)N[C@@H](CCCNC(=N)N)C(=O)N[C@@H](Cc4ccccc4)C(=O)N[C@@H](Cc4ccccc4)C(=O)N[C@@H](CCCCN)C(=O)N[C@@H](CCCCN)C(=O)N[C@@H](Cc4ccccc4)C(=O)NCC(=O)N[C@@H](C)C(=O)N[C@@H](CC(C)C)C(=O)NCC(=O)N[C@@H](CC(C)C)C(=O)N4CCC[C@H]4C(=O)NCC(=O)N4CCC[C@H]4C(=O)N[C@@H](CCCNC(=N)N)C(=O)N[C@@H](CC(C)C)C(=O)NCC(=O)N[C@@H](Cc4ccc(O)cc4)C(=O)N[C@@H](CO)C(=O)N[C@@H](Cc4c[nH]c5ccccc45)C(=O)N[C@@H](CCCCN)C(=O)NC(=O)C4CCC(=O)N4)[C@@H](NC(=O)c4ccccc4)c4ccccc4)C(C)=C1C3(C)C)[C@]1(OC(C)=O)CO[C@@H]1C[C@@H]2O (some centres undefined) (H-C(X1)LLKRFFKKFGALGLPGPRLGYSW-X2)
IC50 (HeLa): 0.0203 µM | IC50 (A2780): 0.0083 µM | IC50 (NCM460): > 0.08 µM | Activity (Erythrocyte): Non-Toxic | Drug metabolism [1]: Metabolite_Detected | Drug uptake [2]: Active | Drug uptake [3]: Active | Drug uptake [4]: Active | Activity (MCF7 [5]): Active | Activity (MCF7 [6]): Dose-dependent effect | Activity [7]: Non-Toxic | Activity (MCF7 [8]): 67.1% | Activity [9]: Non-Toxic | Activity [10]: Non-Toxic | Activity [11]: Non-Toxic | Activity (MCF7 [12]): Dose-dependent effect | Activity (MCF7 [13]): Dose-dependent effect | Drug metabolism [14]: Metabolite_Detected | Drug metabolism [15]: Metabolite_Notdetected | Drug metabolism [16]: Metabolite_Notdetected | Drug metabolism [17]: Metabolite_Notdetected | Drug metabolism [18]: Metabolite_Notdetected | Drug metabolism [19]: Metabolite_Notdetected | Drug metabolism [20]: Metabolite_Notdetected | Drug metabolism [21]: Metabolite_Notdetected | Activity [22]: Non-Toxic | Activity [23]: Non-Toxic | Activity [24]: Non-Toxic | Activity [25]: Non-Toxic | Activity [26]: Non-Toxic | Activity [27]: Non-Toxic | Activity [28]: Non-Toxic | Activity [29]: Non-Toxic | Activity [30]: Non-Toxic
